Measured values: US20030220310A1, “Epoxy-steroidal aldosterone antagonist and calcium channel blocker combination therapy for treatment of congestive heart failure” (priority 2003, published 2003)
Where “and” joins values, the source holds several entries; their conditions need not be identical. Identical values can stand only once.

What was measured:
[1] = X-ray powder diffraction, Form H content of dried solids; assay type: physicochemical; details: for Form H Peak Area 12° Two Theta Peak / Estimated Weight Percent of Form H: methyl ethyl ketone solvate dried at 100° C.
[2] = system: rats with ligated left anterior descending coronary artery; assay: Assay D: Myocardial Infarction Rat Model; assay type: in vivo; details: combination of calcium channel blocker and epoxymexrenone versus either component alone, after six weeks
Description: Assay “D”: Myocardial Infarction Rat Model: Male rats are anesthetized and the heart is exteriorized following a left sided thoracotomy. The left anterior descending coronary artery is ligated with a suture. The thorax is closed and the animal recovers. Sham animals have the suture passed through without ligation. One week prior to the surgery, animals to undergo infarction are divided into separate groups and drug treatment is begun. Groups of animals are administered vehicle, calcium channel blocker alone, epoxymexrenone alone, and combinations of calcium channel blocker and epoxymexrenone, at various doses, as follow: [table] After six weeks, systolic and diastolic blood pressure, left ventricular end diastolic pressure, left ventricular dP/dt, and heart rate are evaluated. The hearts are removed, weighed, measured and fixed in formalin. Collagen content of heart sections are evaluated using computerized imaged image analysis of picrosirius stained sections.

[3] = 3% diepoxide in starting eplerenone mixture
[4] = 10% 11,12-epoxide in starting eplerenone mixture

## COC(=O)[C@@H]1CC2=CC(=O)CC[C@]2(C)C23O[C@@H]2C[C@@]2(C)[C@@H](CC[C@@]24CCC(=O)O4)[C@H]13 (stereo partly drawn) [eplerenone, Pregn-4-ene-7,21-dicarboxylic acid, 9,11-epoxy-17-hydroxy-3-oxo-,γ-lactone, methyl ester, (7α,11α,17β)-]
[1]; 1% 11,12-epoxide in starting eplerenone mixture
  Form H Peak Area 12° Two Theta Peak: None Detected
[1]; [3]
  Estimated Weight Percent of Form H: 10%
  Form H Peak Area 12° Two Theta Peak: 1168
[1]; 5% diepoxide in starting eplerenone mixture
  Form H Peak Area 12° Two Theta Peak: 4175
[1]; [4]
  Estimated Weight Percent of Form H: 10-15%
  Form H Peak Area 12° Two Theta Peak: 1541
[1]; Cooling Rate High, End Point High, Impurity Level High, High Fluid Bed drying
  Weight Percent Form H: 25%
[1]; Cooling Rate High, End Point High, Impurity Level High, Low Fluid Bed drying
  Weight Percent Form H: 4.7%
[1]; Cooling Rate High, End Point High, Impurity Level High, Vacuum Oven drying
  Weight Percent Form H: 29%
[1]; Cooling Rate Low, End Point Low, Impurity Level Low, Low Fluid Bed drying
  Weight Percent Form H: 5.5%
[1]; cooling rate (0) 1.5° C./min., endpoint (0) 25° C., 100.8% eplerenone seeded with Form H, analyzed by XPRD
  Weight Percent Form H (XPRD): 77 Weight Percent
[1]; cooling rate (0) 1.5° C./min., endpoint (0) 25° C., impurity level (0) = 100.8% purity eplerenone starting material as printed, three runs
  Weight Percent Form H (XPRD): 5 Weight Percent and <3% Weight Percent
[1]; cooling rate (+) 3° C./min., endpoint (+) 45° C., impurity level (+) 89.3% purity eplerenone starting material
  Weight Percent Form H (XPRD): 29 Weight Percent
[1]; cooling rate (+) 3° C./min., endpoint (−) 5° C., impurity level (+) 89.3% purity eplerenone starting material
  Weight Percent Form H (XPRD): 9 Weight Percent
[1]; cooling rate (−) 0.1° C./min., endpoint (+) 45° C., impurity level (+) 89.3% purity eplerenone starting material
  Weight Percent Form H (XPRD): 31 Weight Percent
[2]
  cardiac performance: improvements in cardiac performance
